In publication PMC12136037, “Type II kinase inhibitors that target Parkinson’s disease–associated LRRK2” (Science Advances, 2025):

Experiments:
Experiment in all cases: DSF 100 kinase selectivity screen;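 also: compound tested at 20 µM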
Format in all cases: binding
[1] = target: T1, ~100 representative kinases (Homo sapiens, UniProt P49674); details: Protein CSNK1E; average of three replicates
T1 construct: Recombinant protein kinase domains with a concentration of 2 μM
Summary of the method: (§1)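 Each kinase domain, at 2 μM, is mixed with 20 μM test compound and SYPRO Orange in Hepes (20 mM, pH 7.5) with 500 mM NaCl. Temperature is then raised at 3°C/min and fluorescence-monitored unfolding yields the melting temperature change, ΔTm in degrees Celsius.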

[2] = target: T2, ~100 representative kinases (Homo sapiens, UniProt Q9NSY1); details: Protein BMP2K; average of three replicates
T2 construct: Recombinant protein kinase domains with a concentration of 2 μM
Summary of the method: as §1

[3] = target: T3, ~100 representative kinases (Homo sapiens, UniProt Q9H2X6); details: protein HIPK2; average of three replicates
T3 construct: Recombinant protein kinase domains with a concentration of 2 μM
Summary of the method: as §1

[4] = target: T4, ~100 representative kinases (Homo sapiens, UniProt Q9P289); details: protein MST4; average of three replicates
T4 construct: Recombinant protein kinase domains with a concentration of 2 μM
Summary of the method: as §1

[5] = target: T5, ~100 representative kinases (Homo sapiens, UniProt Q9UKI8); details: Protein TLK1; DSF; average of three replicates
T5 construct: Recombinant protein kinase domains with a concentration of 2 μM
T5 sequence (Q9UKI8 1-766): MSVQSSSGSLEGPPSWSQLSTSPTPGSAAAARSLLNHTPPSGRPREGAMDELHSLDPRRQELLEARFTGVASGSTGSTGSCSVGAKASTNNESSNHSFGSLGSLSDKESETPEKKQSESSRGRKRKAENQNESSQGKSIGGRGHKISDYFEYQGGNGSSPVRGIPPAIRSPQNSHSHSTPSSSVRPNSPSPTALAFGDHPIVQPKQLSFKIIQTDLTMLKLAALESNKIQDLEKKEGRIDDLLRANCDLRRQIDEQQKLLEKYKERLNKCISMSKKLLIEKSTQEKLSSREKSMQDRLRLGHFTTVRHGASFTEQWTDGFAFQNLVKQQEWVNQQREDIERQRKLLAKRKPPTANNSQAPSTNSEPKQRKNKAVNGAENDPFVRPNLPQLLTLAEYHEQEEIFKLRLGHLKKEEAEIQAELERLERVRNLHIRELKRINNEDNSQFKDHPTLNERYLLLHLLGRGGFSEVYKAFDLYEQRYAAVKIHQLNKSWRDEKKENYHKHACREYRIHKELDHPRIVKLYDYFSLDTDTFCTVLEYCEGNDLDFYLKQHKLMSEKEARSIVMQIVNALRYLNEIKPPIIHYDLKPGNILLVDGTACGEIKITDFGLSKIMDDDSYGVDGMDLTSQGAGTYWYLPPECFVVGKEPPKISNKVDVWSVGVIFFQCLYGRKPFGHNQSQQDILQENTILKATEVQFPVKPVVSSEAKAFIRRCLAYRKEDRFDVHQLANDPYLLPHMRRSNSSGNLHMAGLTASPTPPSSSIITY
Summary of the method: as §1

[6] = target: T6, ~100 representative kinases (Homo sapiens, UniProt Q13188); details: Protein STK3; DSF; average of three replicates
T6 construct: Recombinant protein kinase domains with a concentration of 2 μM
T6 sequence (Q13188 1-491): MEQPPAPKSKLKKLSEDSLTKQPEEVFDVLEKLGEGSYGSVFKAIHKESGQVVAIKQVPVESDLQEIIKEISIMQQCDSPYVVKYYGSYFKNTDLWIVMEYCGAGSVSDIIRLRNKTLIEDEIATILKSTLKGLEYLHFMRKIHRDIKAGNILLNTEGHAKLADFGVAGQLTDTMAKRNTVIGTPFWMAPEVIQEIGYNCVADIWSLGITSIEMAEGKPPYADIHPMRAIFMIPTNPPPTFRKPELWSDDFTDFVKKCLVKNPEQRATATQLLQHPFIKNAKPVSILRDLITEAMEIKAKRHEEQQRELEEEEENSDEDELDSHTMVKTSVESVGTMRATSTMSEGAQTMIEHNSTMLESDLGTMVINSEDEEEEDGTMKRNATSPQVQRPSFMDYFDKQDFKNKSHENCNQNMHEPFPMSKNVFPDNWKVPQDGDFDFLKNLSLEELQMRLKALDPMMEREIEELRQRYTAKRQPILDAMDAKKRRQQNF
Summary of the method: as §1

[7] = target: T7, ~100 representative kinases (Homo sapiens, UniProt Q13043); details: Protein STK4; DSF; average of three replicates
T7 construct: Recombinant protein kinase domains with a concentration of 2 μM
T7 sequence (Q13043 1-487): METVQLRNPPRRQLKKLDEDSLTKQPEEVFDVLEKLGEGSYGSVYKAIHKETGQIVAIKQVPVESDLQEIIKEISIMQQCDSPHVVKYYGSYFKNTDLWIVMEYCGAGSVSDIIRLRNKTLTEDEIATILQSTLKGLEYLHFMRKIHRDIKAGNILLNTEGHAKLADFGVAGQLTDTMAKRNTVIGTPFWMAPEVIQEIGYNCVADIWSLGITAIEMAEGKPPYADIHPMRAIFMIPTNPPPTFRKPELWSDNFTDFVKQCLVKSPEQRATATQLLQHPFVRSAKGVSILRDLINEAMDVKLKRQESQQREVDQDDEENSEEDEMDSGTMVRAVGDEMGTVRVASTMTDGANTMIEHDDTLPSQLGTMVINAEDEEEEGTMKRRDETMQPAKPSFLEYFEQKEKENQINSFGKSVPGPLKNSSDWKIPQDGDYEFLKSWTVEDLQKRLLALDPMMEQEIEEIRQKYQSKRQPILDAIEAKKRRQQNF
Summary of the method: as §1

[8] = target: T8, ~100 representative kinases (Homo sapiens, UniProt P27448); details: protein MARK3; average of three replicates
T8 construct: Recombinant protein kinase domains with a concentration of 2 μM
Summary of the method: as §1

[9] = target: T9, ~100 representative kinases (Homo sapiens, UniProt P53355); details: Protein DAPK1; average of three replicates
T9 construct: Recombinant protein kinase domains with a concentration of 2 μM
Summary of the method: as §1

T9 sequence (P53355 whole entry, the tested form may be a part): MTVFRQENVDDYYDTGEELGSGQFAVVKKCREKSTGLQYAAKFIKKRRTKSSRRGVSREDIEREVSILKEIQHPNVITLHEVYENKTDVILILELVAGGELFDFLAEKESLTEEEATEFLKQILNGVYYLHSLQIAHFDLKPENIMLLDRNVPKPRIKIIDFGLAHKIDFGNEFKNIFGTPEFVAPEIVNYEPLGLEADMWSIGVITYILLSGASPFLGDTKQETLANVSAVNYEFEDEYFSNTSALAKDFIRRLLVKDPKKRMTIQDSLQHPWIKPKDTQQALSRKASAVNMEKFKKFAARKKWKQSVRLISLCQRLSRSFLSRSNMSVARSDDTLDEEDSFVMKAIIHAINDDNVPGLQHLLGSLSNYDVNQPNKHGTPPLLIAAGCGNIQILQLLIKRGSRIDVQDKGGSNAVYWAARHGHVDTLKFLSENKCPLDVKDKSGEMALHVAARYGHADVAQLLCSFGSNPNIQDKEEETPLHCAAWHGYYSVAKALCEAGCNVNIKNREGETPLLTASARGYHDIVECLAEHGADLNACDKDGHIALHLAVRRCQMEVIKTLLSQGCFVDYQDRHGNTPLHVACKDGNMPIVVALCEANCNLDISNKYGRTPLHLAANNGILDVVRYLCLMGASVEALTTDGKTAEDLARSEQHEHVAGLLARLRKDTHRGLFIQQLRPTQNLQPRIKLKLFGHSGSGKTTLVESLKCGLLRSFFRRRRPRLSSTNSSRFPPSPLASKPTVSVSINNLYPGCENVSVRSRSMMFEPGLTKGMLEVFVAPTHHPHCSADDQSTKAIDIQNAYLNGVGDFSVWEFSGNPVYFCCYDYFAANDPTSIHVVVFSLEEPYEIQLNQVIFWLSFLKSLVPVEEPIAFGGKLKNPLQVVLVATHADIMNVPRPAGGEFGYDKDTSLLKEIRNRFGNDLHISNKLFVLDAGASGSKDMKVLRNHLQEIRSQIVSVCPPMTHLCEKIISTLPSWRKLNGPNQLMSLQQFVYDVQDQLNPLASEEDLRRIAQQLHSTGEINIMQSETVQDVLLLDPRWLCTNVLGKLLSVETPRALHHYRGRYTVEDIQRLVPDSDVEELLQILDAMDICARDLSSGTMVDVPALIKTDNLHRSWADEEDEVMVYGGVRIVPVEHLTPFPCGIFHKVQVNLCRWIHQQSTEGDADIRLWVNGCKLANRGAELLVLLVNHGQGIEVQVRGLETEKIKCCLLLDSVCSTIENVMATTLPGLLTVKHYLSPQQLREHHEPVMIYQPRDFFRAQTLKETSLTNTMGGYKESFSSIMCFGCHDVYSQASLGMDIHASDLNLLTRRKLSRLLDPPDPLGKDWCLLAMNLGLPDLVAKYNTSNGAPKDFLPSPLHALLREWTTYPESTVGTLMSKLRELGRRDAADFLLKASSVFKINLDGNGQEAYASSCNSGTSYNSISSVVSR
T3 sequence (Q9H2X6 whole entry, the tested form may be a part): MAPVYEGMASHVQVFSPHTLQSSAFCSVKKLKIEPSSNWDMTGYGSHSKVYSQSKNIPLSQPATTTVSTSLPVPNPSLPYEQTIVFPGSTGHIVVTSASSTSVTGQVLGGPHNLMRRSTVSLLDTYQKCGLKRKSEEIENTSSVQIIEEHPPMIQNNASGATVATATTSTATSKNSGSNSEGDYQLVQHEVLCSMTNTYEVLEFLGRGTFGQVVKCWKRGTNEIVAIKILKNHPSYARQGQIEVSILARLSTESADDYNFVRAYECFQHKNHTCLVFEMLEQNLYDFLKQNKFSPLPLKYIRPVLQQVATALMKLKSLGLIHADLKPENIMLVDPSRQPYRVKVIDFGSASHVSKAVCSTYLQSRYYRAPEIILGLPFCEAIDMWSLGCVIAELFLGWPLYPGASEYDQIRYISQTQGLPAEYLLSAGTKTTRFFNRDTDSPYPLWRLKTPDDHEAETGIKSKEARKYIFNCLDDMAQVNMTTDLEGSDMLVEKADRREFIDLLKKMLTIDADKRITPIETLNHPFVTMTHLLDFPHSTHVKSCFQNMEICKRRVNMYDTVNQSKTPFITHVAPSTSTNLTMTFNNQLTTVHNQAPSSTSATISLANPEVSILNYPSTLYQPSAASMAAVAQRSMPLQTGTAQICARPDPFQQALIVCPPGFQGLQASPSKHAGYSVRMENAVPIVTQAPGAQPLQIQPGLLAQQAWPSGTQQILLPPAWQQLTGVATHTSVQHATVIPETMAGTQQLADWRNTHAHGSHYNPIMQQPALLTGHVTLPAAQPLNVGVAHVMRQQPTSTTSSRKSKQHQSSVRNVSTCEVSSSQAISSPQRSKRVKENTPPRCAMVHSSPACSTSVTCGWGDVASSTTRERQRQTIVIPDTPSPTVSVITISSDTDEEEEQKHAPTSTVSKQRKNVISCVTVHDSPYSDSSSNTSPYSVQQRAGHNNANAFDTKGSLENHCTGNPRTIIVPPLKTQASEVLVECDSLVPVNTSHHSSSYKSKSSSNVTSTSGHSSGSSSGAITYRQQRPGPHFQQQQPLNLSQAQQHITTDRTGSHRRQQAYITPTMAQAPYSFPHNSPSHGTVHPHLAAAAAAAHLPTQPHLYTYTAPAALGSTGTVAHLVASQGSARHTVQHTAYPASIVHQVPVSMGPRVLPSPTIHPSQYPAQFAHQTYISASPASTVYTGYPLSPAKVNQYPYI
T2 sequence (Q9NSY1 whole entry, the tested form may be a part): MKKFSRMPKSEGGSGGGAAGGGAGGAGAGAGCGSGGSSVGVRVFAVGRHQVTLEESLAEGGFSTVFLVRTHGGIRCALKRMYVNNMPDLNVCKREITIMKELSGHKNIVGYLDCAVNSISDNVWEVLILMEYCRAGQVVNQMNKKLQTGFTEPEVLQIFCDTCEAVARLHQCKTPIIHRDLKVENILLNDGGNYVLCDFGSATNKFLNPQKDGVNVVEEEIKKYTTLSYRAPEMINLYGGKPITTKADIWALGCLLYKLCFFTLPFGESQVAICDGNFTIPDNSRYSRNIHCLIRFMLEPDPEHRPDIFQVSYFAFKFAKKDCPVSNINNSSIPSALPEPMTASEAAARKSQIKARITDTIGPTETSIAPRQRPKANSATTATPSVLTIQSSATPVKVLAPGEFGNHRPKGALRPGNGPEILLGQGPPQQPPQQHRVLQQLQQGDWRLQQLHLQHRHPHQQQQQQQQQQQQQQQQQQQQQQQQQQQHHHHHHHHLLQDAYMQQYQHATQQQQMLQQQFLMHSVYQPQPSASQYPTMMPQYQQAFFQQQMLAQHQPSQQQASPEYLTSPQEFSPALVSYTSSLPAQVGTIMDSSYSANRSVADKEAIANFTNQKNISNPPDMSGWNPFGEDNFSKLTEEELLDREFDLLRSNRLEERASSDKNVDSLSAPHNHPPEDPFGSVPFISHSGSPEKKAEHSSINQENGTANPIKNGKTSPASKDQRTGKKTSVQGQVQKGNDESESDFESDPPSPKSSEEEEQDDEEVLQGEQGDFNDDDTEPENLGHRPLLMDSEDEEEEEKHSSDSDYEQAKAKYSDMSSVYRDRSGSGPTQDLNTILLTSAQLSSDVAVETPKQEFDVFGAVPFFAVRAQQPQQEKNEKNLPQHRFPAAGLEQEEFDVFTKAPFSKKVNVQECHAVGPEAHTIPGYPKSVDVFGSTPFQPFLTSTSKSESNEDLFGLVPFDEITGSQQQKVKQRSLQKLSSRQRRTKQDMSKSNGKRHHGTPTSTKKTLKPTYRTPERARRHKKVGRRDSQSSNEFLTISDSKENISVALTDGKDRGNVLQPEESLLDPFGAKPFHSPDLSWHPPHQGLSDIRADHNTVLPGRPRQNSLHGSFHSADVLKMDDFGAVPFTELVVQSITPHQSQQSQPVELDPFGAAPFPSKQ
T4 sequence (Q9P289 whole entry, the tested form may be a part): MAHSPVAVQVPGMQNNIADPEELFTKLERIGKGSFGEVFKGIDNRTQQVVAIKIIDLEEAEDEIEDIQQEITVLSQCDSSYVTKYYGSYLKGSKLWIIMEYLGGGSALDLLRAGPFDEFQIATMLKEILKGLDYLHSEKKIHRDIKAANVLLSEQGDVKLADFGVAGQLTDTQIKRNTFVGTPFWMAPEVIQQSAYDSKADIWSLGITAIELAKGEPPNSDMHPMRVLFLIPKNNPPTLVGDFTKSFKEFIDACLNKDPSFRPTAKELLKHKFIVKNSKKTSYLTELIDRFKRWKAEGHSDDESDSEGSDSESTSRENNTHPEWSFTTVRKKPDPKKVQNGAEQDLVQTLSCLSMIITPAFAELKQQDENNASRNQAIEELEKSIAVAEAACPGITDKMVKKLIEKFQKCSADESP
T1 sequence (P49674 whole entry, the tested form may be a part): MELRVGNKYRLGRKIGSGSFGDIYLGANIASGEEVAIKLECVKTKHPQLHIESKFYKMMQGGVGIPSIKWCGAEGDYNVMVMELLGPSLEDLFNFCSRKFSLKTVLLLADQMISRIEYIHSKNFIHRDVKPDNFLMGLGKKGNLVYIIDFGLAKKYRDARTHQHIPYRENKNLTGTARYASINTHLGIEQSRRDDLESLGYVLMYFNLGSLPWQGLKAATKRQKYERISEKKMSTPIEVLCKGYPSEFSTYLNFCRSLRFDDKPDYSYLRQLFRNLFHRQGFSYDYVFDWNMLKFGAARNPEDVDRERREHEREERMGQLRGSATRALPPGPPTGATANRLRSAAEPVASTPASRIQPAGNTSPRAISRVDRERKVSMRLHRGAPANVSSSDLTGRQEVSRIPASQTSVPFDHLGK

SMILES | dTm [1] [K] | dTm [2] [K] | dTm [3] [K] | dTm [4] [K] | dTm [5] [K] | dTm [6] [K] | dTm [7] [K] | dTm [8] [K] | dTm [9] [K]
Cc1cc(NC(=O)C2(C(=O)Nc3cccc(-c4c[nH]c5ncnc(N6CCOCC6)c45)c3)CC2)ccc1F [Compound 20] | 6.52 | 8.74 | 11.54 | 7.93 | -0.17 | 10.06 | 7.44 | 8.85 | 0.0134
CCNc1nc(Nc2cc(F)c(C(=O)N3CCOCC3)cc2OC)ncc1C(F)(F)F [GNE-7915] |  | 8.11 | 0.82 | 0.65 | 0.65 | 0.97 | 0.31 | 0.65 | 1.29
CC(C)(C)c1cccc(NC(=O)C2(C(=O)Nc3cccc(-c4c[nH]c5ncnc(N6CCOCC6)c45)c3)CC2)c1 [Compound 22] | 6.66 | 4.67 | 3.44 | 4.41 | 0.35 | 9.61 | 5.49 | 4.89 | -2.58
CN[C@@H]1C[C@H]2O[C@@](C)([C@@H]1OC)n1c3ccccc3c3c4c(c5c6ccccc6n2c5c31)C(=O)NC4 [Staurosporine] |  | 18.68 | 4.23 |  |  | 16.47 |  |  | 9.84
O=C(Nc1cccc(-c2c[nH]c3ncnc(N4CCOCC4)c23)c1)C1(C(=O)Nc2ccc(F)cc2F)CC1 [Compound 23] | 3.09 | 7.18 | 6.30 | 3.92 | -0.64 | 6.69 | 4.75 | 4.65 | -1.28
CC(=O)N1CCN(c2nc(Cl)nc3[nH]cc(-c4cccc(NC(=O)Nc5cc(C(C)(C)C)nn5-c5ccc(C)cc5)c4)c23)CC1 [Compound 31] | -1.75 | 1.28 | 2.23 | -1.15 | -1.67 | 6.29 | 4.59 | -0.26 | -1.54
O=C(Nc1cc(F)cc(Br)c1)C1(C(=O)Nc2cccc(-c3c[nH]c4ncnc(N5CCOCC5)c34)c2)CC1 [Compound 27] | 4.18 | 5.45 | 1.50 | 3.14 | 1.59 | 2.54 | 0.00 | 3.05 | -3.19
Cc1ccc(C(=O)Nc2ccc(CN3CCN(C)CC3)c(C(F)(F)F)c2)cc1C#Cc1cnc2[nH]ncc2c1 [GZD-824, reference compound] |  | 4.51 | 1.22 | 8.85 | -0.0844 | 7.78 | 4.50 | 3.47 | 0.59
O=C(Nc1ccccc1)C1(C(=O)Nc2cccc(-c3c[nH]c4ncnc(N5CCOCC5)c34)c2)CC1 [Compound 12] | 3.99 | 7.72 | 7.64 | 3.77 | 0.18 | 6.83 | 4.49 | 4.89 | 0.18
CNC(=O)c1cc(Oc2ccc(NC(=O)Nc3cc(C(C)(C)C)nn3-c3ccc4ncccc4c3)c(F)c2)ccn1 [Rebastinib, reference compound] | 0.33 | 0.72 |  | 5.29 | 0.57 | 9.02 | 7.33 | 0.56 | -1.01
COc1cc2c(Oc3ccc(NC(=O)C4(C(=O)Nc5ccc(F)cc5)CC4)cc3F)ccnc2cc1OCCCN1CCOCC1 [Foretinib, reference compound] | 3.48 | 1.65 | 4.61 | 3.65 | 0.36 | 8.88 | 8.95 | 3.96 | -0.15
Cc1ccc(NC(=O)C2(C(=O)Nc3cccc(-c4c[nH]c5ncnc(N6CCOCC6)c45)c3)CC2)cc1 [Compound 14] | 3.41 | 5.95 | 8.21 | 3.59 | -0.87 | 7.94 | 4.82 | 4.90 | -0.92
O=C(Nc1ccc(Cl)cc1)C1(C(=O)Nc2cccc(-c3c[nH]c4ncnc(N5CCOCC5)c34)c2)CC1 [Compound 13] | 5.46 | 6.46 | 10.73 | 5.13 | 0.97 | 10.20 | 7.95 | 7.72 | 0.12
Cc1ccc(-n2nc(C(C)(C)C)cc2NC(=O)Nc2cccc(-c3c[nH]c4ncnc(N5CCOCC5)c34)c2)cc1 [Compound 29] | 0.48 | 7.54 | 9.24 | 3.56 | 0.25 | 10.79 | 8.44 | 2.95 | 2.62
Cn1cc(-c2c[nH]c3ncnc(N4CCOCC4)c23)cc1C#N [PFE-360] |  | 14.15 | 0.25 | 1.97 | -0.11 | 6.99 | 4.12 | 2.70 | 0.54
Cc1ccc(C(=O)Nc2ccc(CN3CCN(C)CC3)c(C(F)(F)F)c2)cc1C#Cc1c[nH]c2ncnc(N3CCOCC3)c12 [Compound 1] |  | 7.81 | 4.31 | 4.54 | 0.86 | 10.52 | 7.61 | 1.49 | 0.30
C[C@@H]1CN(c2cc(-c3n[nH]c4ccc(OC5(C)CC5)cc34)ncn2)C[C@H](C)O1 [MLi2] |  | 2.01 | 0.22 | -0.41 | 0.0124 | 0.09 | -0.67 | -1.07 | 0.22
